# Assay results from PubChem BioAssay AID208 (DTP/NCI, 2004).
# “And” between values parts separate entries of the source, which are not always exact repeats. Identical values can stand only once. Records with an inconclusive call do not appear.
# Tested on: HT29 intrarenal xenograft, nude mice, tumor weight change
# Experiment: NCI In Vivo Anticancer Drug Screen. Data for tumor model HT29;CX-1 Human Adenocarcinoma (MER+) (intrarenal inoculation) in NU/NU BALB/C (nude) mice
# Conditions: endpoint: mean tumor weight change, higher = larger tumour
# Method: The antitumor activity of compounds was measured in mice bearing transplantable tumors. Survival or tumor size were measured and the results are expressed as the measurement made in the treated group (T) divided by the measurement made in the vehicle treated control group (C). The tumor model used in this assay is HT29;CX-1 Human Adenocarcinoma (MER+) (intrarenal inoculation) in NU/NU BALB/C (nude) mice
# [1] = dose: 100.0 mg/kg/injection, schedule: Q01DX010 (sc), vehicle: Klucel (hydroxypropylcellulose) (HPC)
# [2] = dose: 200.0 mg/kg/injection, schedule: Q04DX004 (sc), vehicle: saline
# [3] = dose: 200.0 mg/kg/injection, schedule: Q04DX004 (sc), vehicle: saline with Tween-80
# [4] = dose: 600.0 mg/kg/injection, schedule: Q04DX004 (sc), vehicle: saline
# [5] = dose: 25.0 mg/kg/injection, schedule: Q04DX004 (sc), vehicle: saline
# [6] = dose: 200.0 mg/kg/injection, schedule: Q01DX010 (sc), vehicle: Klucel (hydroxypropylcellulose) (HPC)
# [7] = dose: 400.0 mg/kg/injection, schedule: Q01DX010 (sc), vehicle: Klucel (hydroxypropylcellulose) (HPC)
# [8] = dose: 800.0 mg/kg/injection, schedule: Q01DX010 (sc), vehicle: Klucel (hydroxypropylcellulose) (HPC)
compound,measurement,setting,value
CCCCc1ccc2nc(NC(=O)OC)[nH]c2c1,T/C,"dose: 25.0 mg/kg/injection, schedule: Q01DX010 (sc), vehicle: saline with Tween-80",108 % of control
same,T/C,"dose: 100.0 mg/kg/injection, schedule: Q01DX010 (sc), vehicle: saline with Tween-80",90 % of control
same,T/C,"dose: 200.0 mg/kg/injection, schedule: Q01DX010 (sc), vehicle: saline with Tween-80",94 % of control
COC(=O)C[C@](O)(CCC(C)(C)O)C(=O)O[C@@H]1C(OC)=C[C@]23CCCN2CCc2cc4c(cc2[C@H]13)OCO4,T/C,"dose: 0.31 mg/kg/injection, schedule: Q04DX004 (sc), vehicle: saline",68 % of control
same,T/C,"dose: 0.63 mg/kg/injection, schedule: Q04DX004 (sc), vehicle: saline",84 % of control
same,T/C,"dose: 1.25 mg/kg/injection, schedule: Q04DX004 (sc), vehicle: saline",103 % of control
same,T/C,"dose: 2.5 mg/kg/injection, schedule: Q04DX004 (sc), vehicle: saline",86 % of control
Cn1cnc([N+](=O)[O-])c1S(=O)(=O)NCN1CCOCC1,T/C,[1],80 % of control
C[C@@H]1CC[C@]2(C)CC[C@]3(C)C(=CC[C@@H]4[C@@]5(C)CC[C@@H](OC(=O)c6ccc(O)cc6)C(C)(C)[C@@H]5C[C@H](O)[C@]43C)[C@@H]2[C@H]1C(=O)O,T/C,"dose: 0.62 mg/kg/injection, schedule: Q04DX004 (sc), vehicle: saline with Tween-80",79 % of control
same,T/C,"dose: 1.25 mg/kg/injection, schedule: Q04DX004 (sc), vehicle: saline with Tween-80",109 % of control
same,T/C,"dose: 2.5 mg/kg/injection, schedule: Q04DX004 (sc), vehicle: saline with Tween-80",59 % of control
COC1=C(OC)C(=O)C(SC/C=C(\C)CCCC(C)CCCC(C)CCCC(C)C)=CC1=O (stereo not given),T/C,"dose: 300.0 mg/kg/injection, schedule: Q04DX004 (ip), vehicle: saline with Tween-80",97 % of control
same,T/C,"dose: 600.0 mg/kg/injection, schedule: Q04DX004 (ip), vehicle: saline with Tween-80",83 % of control
same,T/C,"dose: 1200.0 mg/kg/injection, schedule: Q04DX004 (ip), vehicle: saline with Tween-80",88 % of control
C=CC(C)(C)n1cc(C2=C(O)C(=O)C(c3cn(C(C)(C)C=C)c4ccccc34)=C(O)C2=O)c2ccccc21,T/C,"dose: 25.0 mg/kg/injection, schedule: Q04DX004 (sc), vehicle: Klucel (hydroxypropylcellulose) (HPC)",113 % of control
same,T/C,"dose: 100.0 mg/kg/injection, schedule: Q04DX004 (sc), vehicle: Klucel (hydroxypropylcellulose) (HPC)",118 % of control
same,T/C,"dose: 200.0 mg/kg/injection, schedule: Q04DX004 (sc), vehicle: Klucel (hydroxypropylcellulose) (HPC)",121 % of control
O=C(O)CCCc1ccc(N(CCCl)CCCl)cc1,T/C,"dose: 0.13 mg/kg/injection, schedule: Q04DX004 (ip), vehicle: Klucel (hydroxypropylcellulose) (HPC)",70 % of control
same,T/C,"dose: 0.2 mg/kg/injection, schedule: Q04DX004 (ip), vehicle: Klucel (hydroxypropylcellulose) (HPC)",77 % of control
same,T/C,"dose: 0.3 mg/kg/injection, schedule: Q04DX004 (ip), vehicle: Klucel (hydroxypropylcellulose) (HPC)",35 % of control
same,T/C,"dose: 40.0 mg/kg/injection, schedule: Q04DX004 (ip), vehicle: Klucel (hydroxypropylcellulose) (HPC)",54 % of control
Cc1nnc2ncccn12,T/C,"dose: 100.0 mg/kg/injection, schedule: Q04DX004 (sc), vehicle: saline",73 % of control and 84 % of control
same,T/C,[2],69 % of control and 84 % of control
same,T/C,"dose: 400.0 mg/kg/injection, schedule: Q04DX004 (sc), vehicle: saline",72 % of control and 76 % of control
NC(=S)N/N=C/c1ccc(O)cn1,T/C,[3],75 % of control
COc1cc(O)c2c(O)c3c(c4c2c1[C@]1(C4)C(C)=CCCC1(C)C)[C@H](O)[C@@]1(O)CC(=O)C(C(N)=O)=C(O)[C@@]1(O)C3=O,T/C,"dose: 9.4 mg/kg/injection, schedule: Q04DX004 (ip), vehicle: saline with Tween-80",59 % of control
same,T/C,"dose: 18.8 mg/kg/injection, schedule: Q04DX004 (ip), vehicle: saline with Tween-80",87 % of control
same,T/C,"dose: 37.5 mg/kg/injection, schedule: Q04DX004 (ip), vehicle: saline with Tween-80",101 % of control
O=c1[nH]c2c(ccc3cnccc32)c2c1CCC2,T/C,"dose: 225.0 mg/kg/injection, schedule: Q04DX004 (sc), vehicle: suspension in saline",67 % of control
same,T/C,"dose: 450.0 mg/kg/injection, schedule: Q04DX004 (sc), vehicle: suspension in saline",67 % of control
same,T/C,"dose: 900.0 mg/kg/injection, schedule: Q04DX004 (sc), vehicle: suspension in saline",73 % of control
same,T/C,"dose: 1800.0 mg/kg/injection, schedule: Q04DX004 (sc), vehicle: suspension in saline",53 % of control
O=S(=O)(O)O.[NH-]C1CCCCC1[NH-].[Pt+2] (stereo not given),T/C,"dose: 0.63 mg/kg/injection, schedule: Q01DX010 (sc), vehicle: dextrose",124 % of control
same,T/C,"dose: 1.25 mg/kg/injection, schedule: Q01DX010 (sc), vehicle: dextrose",83 % of control
same,T/C,"dose: 2.5 mg/kg/injection, schedule: Q01DX010 (sc), vehicle: dextrose",73 % of control
O=C1CCC(=O)N1CO,T/C,"dose: 150.0 mg/kg/injection, schedule: Q04DX004 (sc), vehicle: saline",66 % of control
same,T/C,"dose: 300.0 mg/kg/injection, schedule: Q04DX004 (sc), vehicle: saline",80 % of control
same,T/C,[4],74 % of control
Nc1nnc[se]1,T/C,[3],64 % of control
same,T/C,"dose: 400.0 mg/kg/injection, schedule: Q04DX004 (sc), vehicle: saline with Tween-80",31 % of control
same,T/C,"dose: 800.0 mg/kg/injection, schedule: Q04DX004 (sc), vehicle: saline with Tween-80",23 % of control
O=P(O)(NCCCl)NCCCl,T/C,"dose: 37.5 mg/kg/injection, schedule: Q04DX004 (sc), vehicle: saline",54 % of control and 61 % of control
same,T/C,"dose: 75.0 mg/kg/injection, schedule: Q04DX004 (sc), vehicle: saline",71 % of control and 80 % of control
[Na+],T/C,"dose: 150.0 mg/kg/injection, schedule: Q04DX004 (ip), vehicle: water",55 % of control
same,T/C,"dose: 300.0 mg/kg/injection, schedule: Q04DX004 (ip), vehicle: water",70 % of control
same,T/C,"dose: 600.0 mg/kg/injection, schedule: Q04DX004 (ip), vehicle: water",16 % of control
same,T/C,"dose: 1200.0 mg/kg/injection, schedule: Q04DX004 (ip), vehicle: water",76 % of control
NC(=O)c1ccc[n+](Cc2c(Cl)cccc2Cl)c1,T/C,[5],93 % of control
same,T/C,"dose: 50.0 mg/kg/injection, schedule: Q04DX004 (sc), vehicle: saline",91 % of control
same,T/C,[2],205 % of control
OCCOCCN1CCN(CCCN2c3ccccc3Sc3ccc(C(F)(F)F)cc32)CC1,T/C,"dose: 12.0 mg/kg/injection, schedule: Q01DX010 (sc), vehicle: saline",23 % of control
same,T/C,"dose: 24.0 mg/kg/injection, schedule: Q01DX010 (sc), vehicle: saline",47 % of control
same,T/C,"dose: 48.0 mg/kg/injection, schedule: Q01DX010 (sc), vehicle: saline",42 % of control
C=CC(C)NC(=S)NNC(=S)NC (stereo not given),T/C,"dose: 150.0 mg/kg/injection, schedule: Q04DX004 (sc), vehicle: saline + alcohol",91 % of control
same,T/C,"dose: 300.0 mg/kg/injection, schedule: Q04DX004 (sc), vehicle: saline + alcohol",44 % of control
same,T/C,"dose: 600.0 mg/kg/injection, schedule: Q04DX004 (sc), vehicle: saline + alcohol",97 % of control
same,T/C,"dose: 1200.0 mg/kg/injection, schedule: Q04DX004 (sc), vehicle: saline + alcohol",74 % of control
COc1cc2c3c(cccc3c1)C(=O)N(CCN(C)C)C2=O,T/C,"dose: 37.5 mg/kg/injection, schedule: Q04DX004 (sc), vehicle: saline with Tween-80",72 % of control
same,T/C,"dose: 75.0 mg/kg/injection, schedule: Q04DX004 (sc), vehicle: saline with Tween-80",98 % of control
same,T/C,"dose: 150.0 mg/kg/injection, schedule: Q04DX004 (sc), vehicle: saline with Tween-80",74 % of control
same,T/C,"dose: 300.0 mg/kg/injection, schedule: Q04DX004 (sc), vehicle: saline with Tween-80",105 % of control
CCCC(=O)OCc1cc(=O)n(C)c2c3c4c(cc12)c(C)cc(=O)n4CO3,T/C,[1],40 % of control
same,T/C,[6],43 % of control
same,T/C,[7],56 % of control
same,T/C,[8],27 % of control
Cc1ccc(S(=O)(=O)N/N=C/C(=O)O)cc1,T/C,[1],87 % of control
same,T/C,[6],50 % of control
same,T/C,[7],96 % of control
same,T/C,[8],106 % of control
ClCCCN1CCCCC1CCl (stereo not given),T/C,"dose: 6.25 mg/kg/injection, schedule: Q04DX004 (sc), vehicle: saline",57 % of control
same,T/C,"dose: 12.5 mg/kg/injection, schedule: Q04DX004 (sc), vehicle: saline",95 % of control
same,T/C,[5],71 % of control
O=C(O)CP(=O)(O)O,T/C,[4],51 % of control
same,T/C,"dose: 1200.0 mg/kg/injection, schedule: Q04DX004 (sc), vehicle: saline",118 % of control
same,T/C,"dose: 2400.0 mg/kg/injection, schedule: Q04DX004 (sc), vehicle: saline",34 % of control
